This note sets out measurements from patent US9085576B2 (AMGEN INC., priority 2013, dated 2015).

Like-named read-outs stand apart in the source and are kept apart here. Bounds are passed on as bounds.

In test [1] the target is Beta Secretase enzyme (BACE) (Homo sapiens (Human), UniProt P56817). Nature of the test: In vitro enzymatic BACE FRET assay. Format: biochemical.
The target in the next test is Cathepsin D (Cat D) (Homo sapiens (Human), UniProt P07339). The test is described as follows: In vitro enzymatic Cathepsin D (Cat D) FRET assay. Format: biochemical.
[2] abbreviates: read-out: BACE1 Enzyme assay IC50.

Chain of Beta Secretase enzyme (BACE) (P56817 46-501): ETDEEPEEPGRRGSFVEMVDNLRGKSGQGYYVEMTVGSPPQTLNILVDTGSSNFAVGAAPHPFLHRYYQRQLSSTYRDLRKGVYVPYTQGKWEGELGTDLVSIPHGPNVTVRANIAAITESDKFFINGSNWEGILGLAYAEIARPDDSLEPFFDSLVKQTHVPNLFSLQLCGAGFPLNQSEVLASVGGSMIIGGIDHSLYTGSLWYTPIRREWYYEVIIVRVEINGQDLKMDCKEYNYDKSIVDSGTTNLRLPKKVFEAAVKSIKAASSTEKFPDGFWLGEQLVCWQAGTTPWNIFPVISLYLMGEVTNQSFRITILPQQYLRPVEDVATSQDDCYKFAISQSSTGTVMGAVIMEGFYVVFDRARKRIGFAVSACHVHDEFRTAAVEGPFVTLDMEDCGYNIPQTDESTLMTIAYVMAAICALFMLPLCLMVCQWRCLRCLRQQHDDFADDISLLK
Chain of Cathepsin D (Cat D) (P07339 65-412, species assumed): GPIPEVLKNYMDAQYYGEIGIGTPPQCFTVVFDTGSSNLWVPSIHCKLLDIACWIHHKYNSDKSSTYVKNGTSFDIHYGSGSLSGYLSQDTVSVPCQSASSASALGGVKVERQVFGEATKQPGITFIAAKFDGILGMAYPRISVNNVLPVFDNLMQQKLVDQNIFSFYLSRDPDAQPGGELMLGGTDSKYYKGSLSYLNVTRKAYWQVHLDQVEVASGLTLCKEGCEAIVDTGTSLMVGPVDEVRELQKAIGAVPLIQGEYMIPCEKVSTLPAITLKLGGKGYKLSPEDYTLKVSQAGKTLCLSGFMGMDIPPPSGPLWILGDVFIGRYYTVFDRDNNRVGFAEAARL

What is called IC50 is the concentration that inhibits the measured activity by half. Consider `NC1=N[C@](c2cc(NC(=O)c3nn(C(F)F)cc3Cl)ccc2Cl)(C(F)F)[C@@H]2C[C@@H]2O1` (racemic) [Example 220, N-(3-((1(R,S),5(S,R),6(R,S))-3-amino-5-(difluoromethyl)-2-oxa-4-azabicyclo[4.1.0]hept-3-en-5-yl)-4-chlorophenyl)-4-chloro-1-(difluoromethyl)-1H-pyrazole-3-carboxamide], for which the half-inhibitory concentration (IC50) in test [1] (setting [2]) turned out to be 0.0188 µM; on Cathepsin D (Cat D) (read-out: CatD IC50), 691 µM.

Take `NC1=N[C@](CF)(c2cccc(NC(=O)c3ccc(Cl)cn3)c2)[C@H]2C[C@H]2O1` (racemic) [Example 423, N-(3-(((1R,S),(5S,R),(6R,S))-3-amino-5-(fluoromethyl)-2-oxa-4-azabicyclo[4.1.0]hept-3-en-5-yl)phenyl)-5-chloropicolinamide]: the results for the IC50 (in test [1] (setting [2]); at Cathepsin D (Cat D) (read-out: CatD IC50)) were 0.396 µM and 592 µM, respectively.

In the case of `NC1=N[C@@](c2cc(N[C@@H]3CCc4cc(Br)cnc43)ccc2F)(C(F)F)[C@H]2C[C@H]2O1` (single isomer, unassigned) [Example 380, (1R,5S,6R)-5-(5-(((R)-3-bromo-6,7-dihydro-5H-cyclopenta[b]pyridin-7-yl)amino)-2-fluorophenyl)-5-(difluoromethyl)-2-oxa-4-azabicyclo[4.1.0]hept-3-en-3-amine or (1R,5S,6R)-5-(5-(((S)-3-bromo-6,7-dihydro-5H-cyclopenta[b]pyridin-7-yl)amino)-2-fluorophenyl)-5-(difluoromethyl)-2-oxa-4-azabicyclo[4.1.0]hept-3-en-3-amine], the IC50 in test [1] (setting [2]) was 0.143 µM; at Cathepsin D (Cat D) (read-out: CatD IC50) it was 336 µM.

On to `NC1=N[C@@](c2cc(N[C@H]3CCc4cc(Br)cnc43)ccc2F)(C(F)F)[C@H]2C[C@H]2O1` (single isomer, unassigned) [Example 381, (1R,5S,6R)-5-(5-(((S)-3-bromo-6,7-dihydro-5H-cyclopenta[b]pyridin-7-yl)amino)-2-fluorophenyl)-5-(difluoromethyl)-2-oxa-4-azabicyclo[4.1.0]hept-3-en-3-amine or (1R,5S,6R)-5-(5-(((R)-3-bromo-6,7-dihydro-5H-cyclopenta[b]pyridin-7-yl)amino)-2-fluorophenyl)-5-(difluoromethyl)-2-oxa-4-azabicyclo[4.1.0]hept-3-en-3-amine], for which the IC50 in test [1] (setting [2]) worked out at 3.45 µM; at Cathepsin D (Cat D) (read-out: CatD IC50), 83.3 µM.

With `C#CCOc1cnc(C(=O)Nc2cc(F)c(F)c([C@@]3(C(F)F)N=C(N)O[C@@H]4C[C@@H]43)c2)cn1` [Example 111, N-(3-((1R,5S,6R)-3-amino-5-(difluoromethyl)-2-oxa-4-azabicyclo[4.1.0]hept-3-en-5-yl)-4,5-difluorophenyl)-5-(prop-2-yn-1-yloxy)pyrazine-2-carboxamide], the IC50 in test [1] (setting [2]) turned out to be 6.5 µM; at Cathepsin D (Cat D) (read-out: CatD IC50) it was 1000 µM.

On to `C#CCOc1cnc(C(=O)Nc2cc(F)c(F)c([C@@]3(C(F)F)N=C(N)O[C@@H]4C[C@@H]43)c2)cn1` [Example 115, N-(3-((1R,5S,6R)-3-amino-5-(difluoromethyl)-2-oxa-4-azabicyclo[4.1.0]hept-3-en-5-yl)-4,5-difluorophenyl)-5-(prop-2-yn-1-yloxy)pyrazine-2-carboxamide], for which the IC50 in test [1] (setting [2]) amounted to 0.0021 µM; on Cathepsin D (Cat D) (read-out: CatD IC50), 42.5 µM.

Turning to `Cc1cc(C#N)cnc1C(=O)Nc1cc(F)c(Cl)c([C@]2(CF)N=C(N)O[C@H]3C[C@H]32)c1` [Example 139, N-(3-((1 S,5R,6S)-3-amino-5-(fluoromethyl)-2-oxa-4-azabicyclo[4.1.0]hept-3-en-5-yl)-4-chloro-5-fluorophenyl)-5-cyano-3-methylpicolinamide], the IC50 in test [1] (setting [2]) came out at 14.2 µM; on Cathepsin D (Cat D) (read-out: CatD IC50), 646 µM.

`CC#CCOc1cnc(C(=O)Nc2ccc(Cl)c([C@]3(C(F)F)N=C(N)O[C@H]4C[C@H]43)c2)cn1` [Example 216, N-(3-((1S,5R,6S)-3-amino-5-(difluoromethyl)-2-oxa-4-azabicyclo[4.1.0]hept-3-en-5-yl)-4-chlorophenyl)-5-(but-2-yn-1-yloxy)pyrazine-2-carboxamide]: the IC50 was 0.838 µM in test [1] (setting [2]) and 500 µM on Cathepsin D (Cat D) (read-out: CatD IC50).

`C#CCOc1cnc(C(=O)Nc2ccc(Cl)c([C@]3(C(F)F)N=C(N)O[C@H]4C[C@H]43)c2)cn1` [Example 222, N-(3-((1S,5R,6S)-3-amino-5-(difluoromethyl)-2-oxa-4-azabicyclo[4.1.0]hept-3-en-5-yl)-4-chlorophenyl)-5-(prop-2-yn-1-yloxy)pyrazine-2-carboxamide]: the half-inhibitory concentration (IC50) in test [1] (setting [2]) was determined as 0.701 µM; on Cathepsin D (Cat D) (read-out: CatD IC50) it was 493 µM.

`NC1=N[C@](c2cc(NC(=O)c3nn(C(F)F)cc3Cl)ccc2Cl)(C(F)F)[C@@H]2C[C@@H]2O1` [Example 225, N-(3-((1S,5R,6S)-3-amino-5-(difluoromethyl)-2-oxa-4-azabicyclo[4.1.0]hept-3-en-5-yl)-4-chlorophenyl)-4-chloro-1-(difluoromethyl)-1H-pyrazole-3-carboxamide]: the IC50 in test [1] (setting [2]) amounted to 8.27 µM; at Cathepsin D (Cat D) (read-out: CatD IC50) it was 1340 µM.

Turning to `NC1=N[C@@](c2cccc(NC(=O)c3ccc(Cl)cn3)c2)(C(F)F)[C@H]2C[C@H]2O1` [Example 263, N-(3-([(1R,S),(5S,R),(6R,S)]-3-amino-5-(difluoromethyl)-2-oxa-4-azabicyclo[4.1.0]hept-3-en-5-yl)phenyl)-5-chloropicolinamide], the concentration for half-maximal inhibition (IC50) in test [1] (setting [2]) stood at 0.525 µM; at Cathepsin D (Cat D) (read-out: CatD IC50), 1060 µM.

With `NC1=N[C@@](c2cccc(NC(=O)c3ccc(Cl)cn3)c2)(C(F)F)[C@H]2C[C@H]2O1` [Example 265, N-(3-((1R,5S,6R)-3-amino-5-(difluoromethyl)-2-oxa-4-azabicyclo[4.1.0]hept-3-en-5-yl)phenyl)-5-chloropicolinamide], the IC50 in test [1] (setting [2]) stood at 0.265 µM; at Cathepsin D (Cat D) (read-out: CatD IC50), 397 µM.

Turning to `NC1=N[C@@](CF)(c2cc(NC(=O)c3ccc(Cl)cn3)ccc2Cl)[C@@H]2C[C@@H]2O1` [Example 271], the results for the IC50 (in test [1] (setting [2]); on Cathepsin D (Cat D) (read-out: CatD IC50)) were 24.1 µM and greater than 400 µM, respectively.

Consider `NC1=N[C@@](CF)(c2cc(NC(=O)c3ccc(Cl)cn3)ccc2Cl)[C@@H]2CC2O1` (stereo partly drawn) [Example 276, N-(3-(((1R,S), (5S,R), (6R,S))-3-amino-5-(fluoromethyl)-2-oxa-4-azabicyclo[4.1.0]hept-3-en-5-yl)-4-chlorophenyl)-5-chloropicolinamide], for which the IC50 in test [1] (setting [2]) came out at 0.138 µM; on Cathepsin D (Cat D) (read-out: CatD IC50) it was 918 µM.

Regarding `C[C@@]1(c2nc(NC(=O)c3ccc(C#N)cn3)ccc2F)N=C(N)O[C@H]2C[C@H]21` [Example 325, N-(6-((1S,5R,6S)-3-amino-5-methyl-2-oxa-4-azabicyclo[4.1.0]hept-3-en-5-yl)-5-fluoropyridin-2-yl)-5-cyanopicolinamide], the IC50 in test [1] (setting [2]) is greater than 40 µM; at Cathepsin D (Cat D) (read-out: CatD IC50), 1290 µM.

Regarding `C[C@@]1(c2cc(NC(=O)c3ccc(Cl)cn3)cnc2F)N=C(N)O[C@H]2C[C@H]21` [Example 335, N-(5-((1S,5R,6S)-3-amino-5-methyl-2-oxa-4-azabicyclo[4.1.0]hept-3-en-5-yl)-6-fluoropyridin-3-yl)-5-chloropicolinamide], the results for the IC50 (in test [1] (setting [2]); on Cathepsin D (Cat D) (read-out: CatD IC50)) were 14.1 µM and greater than 400 µM, respectively.

Consider `COc1cnc2c(Nc3ccc(F)c([C@@]4(C)N=C(N)O[C@H]5C[C@H]54)c3)nccc2c1` [Example 337, (1S,5S,6S)-5-(2-fluoro-5-((3-methoxy-1,7-naphthyridin-8-yl)amino)phenyl)-5-methyl-2-oxa-4-azabicyclo[4.1.0]hept-3-en-3-amine], for which the figures for the IC50 (in test [1] (setting [2]); on Cathepsin D (Cat D) (read-out: CatD IC50)) were 3.35 µM and greater than 400 µM, respectively.

For the compound `COc1cnc2c(Nc3ccc(F)c([C@]4(C)N=C(N)O[C@@H]5C[C@@H]54)c3)nccc2c1` [Example 338, (1R,5R,6R)-5-(2-fluoro-5-((3-methoxy-1,7-naphthyridin-8-yl)amino)phenyl)-5-methyl-2-oxa-4-azabicyclo[4.1.0]hept-3-en-3-amine], the IC50 is greater than 40 µM in test [1] (setting [2]) and 56.6 µM at Cathepsin D (Cat D) (read-out: CatD IC50).

`COc1cnc2c(Nc3ccc(F)c([C@]4(C)N=C(N)O[C@H]5C[C@H]54)c3)nccc2c1` [Example 339]: the half-inhibitory concentration (IC50) is 8.11 µM in test [1] (setting [2]) and greater than 400 µM at Cathepsin D (Cat D) (read-out: CatD IC50).

With `N#Cc1cnc2c(Nc3ccc(Cl)c([C@]4(C(F)F)N=C(N)O[C@H]5C[C@H]54)c3)ncc(F)c2c1` [Example 349, 8-((3-((1(R,S),5(S,R),6(R,S))-3-amino-5-(difluoromethyl)-2-oxa-4-azabicyclo[4.1.0]hept-3-en-5-yl)-4-chlorophenyl)amino)-5-fluoro-1,7-naphthyridine-3-carbonitrile], the IC50 in test [1] (setting [2]) is 0.0829 µM; on Cathepsin D (Cat D) (read-out: CatD IC50), 88.4 µM.

`N#Cc1cnc2c(Nc3ccc(Cl)c([C@]4(C(F)F)N=C(N)O[C@H]5C[C@H]54)c3)ncc(F)c2c1` [Example 351, 8-((3-((1S,5R,6S)-3-amino-5-(difluoromethyl)-2-oxa-4-azabicyclo[4.1.0]hept-3-en-5-yl)-4-chlorophenyl)amino)-5-fluoro-1,7-naphthyridine-3-carbonitrile]: the results for the IC50 (in test [1] (setting [2]); on Cathepsin D (Cat D) (read-out: CatD IC50)) were 2.81 µM and greater than 14.8 µM, respectively.

In the case of `NC1=N[C@@](c2cc(Nc3coc4cc(Cl)cnc34)ccc2F)(C(F)F)[C@H]2C[C@H]2O1` [Example 385, N-(3-((1R,5S,6R)-3-amino-5-(difluoromethyl)-2-oxa-4-azabicyclo[4.1.0]hept-3-en-5-yl)-4-fluorophenyl)-6-chlorofuro[3,2-b]pyridin-3-amine], the IC50 amounted to 0.253 µM in test [1] and 153 µM against Cathepsin D (Cat D).

As for `NC1=N[C@](c2cc(-c3nc4ccc(Cl)cc4o3)ccc2F)(C(F)F)[C@@H]2C[C@@H]2O1` [Example 425, (1S,5R,6S)-5-(5-(6-chlorobenzo[d]oxazol-2-yl)-2-fluorophenyl)-5-(difluoromethyl)-2-oxa-4-azabicyclo[4.1.0]hept-3-en-3-amine], the values for the IC50 (in test [1] (setting [2]); at Cathepsin D (Cat D) (read-out: CatD IC50)) were 0.613 µM and 240 µM, respectively.

As to `NC1=N[C@@](c2cc(-c3nc4ccc(Cl)cc4o3)ccc2F)(C(F)F)[C@H]2C[C@H]2O1` [Example 426, (1R,5S,6R)-5-(5-(6-chlorobenzo[d]oxazol-2-yl)-2-fluorophenyl)-5-(difluoromethyl)-2-oxa-4-azabicyclo[4.1.0]hept-3-en-3-amine], the IC50 in test [1] (setting [2]) was 1.24 µM; on Cathepsin D (Cat D) (read-out: CatD IC50), 196 µM.
